Source: ChEMBL document CHEMBL4840343, “Fragment-based lead discovery of indazole-based compounds as AXL kinase inhibitors” (Bioorg Med Chem, 2021)
≈ marks a conversion by molar mass, not a printed value. Calls of active or inactive are those of the source. The rule behind the calls is not given here.

Key:
[1] = target: T1, Tyrosine-protein kinase receptor UFO (Homo sapiens, UniProt P30530); test: Inhibition of Axl (unknown origin) using 5'FAM labeled KKKKEEIYFFF-NH2 peptide as substrate incubated for 1.5 hrs
T1 sequence (P30530 whole entry): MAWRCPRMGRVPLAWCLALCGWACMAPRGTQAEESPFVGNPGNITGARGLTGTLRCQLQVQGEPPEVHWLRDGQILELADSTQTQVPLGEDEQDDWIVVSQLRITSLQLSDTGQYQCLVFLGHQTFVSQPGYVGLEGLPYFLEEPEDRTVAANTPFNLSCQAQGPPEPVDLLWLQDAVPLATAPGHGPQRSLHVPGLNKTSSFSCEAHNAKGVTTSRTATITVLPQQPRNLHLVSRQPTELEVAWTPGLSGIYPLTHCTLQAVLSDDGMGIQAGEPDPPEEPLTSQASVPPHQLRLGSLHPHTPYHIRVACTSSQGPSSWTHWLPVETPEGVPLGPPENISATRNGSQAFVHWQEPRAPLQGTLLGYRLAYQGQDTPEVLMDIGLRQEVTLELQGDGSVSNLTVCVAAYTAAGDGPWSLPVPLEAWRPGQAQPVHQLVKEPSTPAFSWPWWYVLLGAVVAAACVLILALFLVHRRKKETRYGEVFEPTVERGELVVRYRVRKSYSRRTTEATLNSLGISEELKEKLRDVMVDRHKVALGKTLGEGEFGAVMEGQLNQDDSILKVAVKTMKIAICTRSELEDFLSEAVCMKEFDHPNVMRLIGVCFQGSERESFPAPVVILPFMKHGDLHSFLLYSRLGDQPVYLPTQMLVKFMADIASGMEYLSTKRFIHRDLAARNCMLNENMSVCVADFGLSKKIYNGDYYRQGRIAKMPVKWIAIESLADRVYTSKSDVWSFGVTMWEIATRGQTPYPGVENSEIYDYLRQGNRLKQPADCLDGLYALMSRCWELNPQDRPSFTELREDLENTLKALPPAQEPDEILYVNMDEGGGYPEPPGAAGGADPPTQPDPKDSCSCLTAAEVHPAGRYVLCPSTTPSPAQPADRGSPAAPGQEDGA

[2] = target: T1, Tyrosine-protein kinase receptor UFO; test: Displacement of K5 tracer from Axl (unknown origin) expressed in human HEK293 cells cotransfected with NanoLuc measured after 2 hrs by NanoBRET assay; type: cell-based
[3] = AUC (0 to infinity) in mouse at 5 mg/kg, po; type: ADME, organism-based; set-up: route oral, time infinity, dose 5 mg/kg; conditions: in vivo
[4] = Permeability across apical to basolateral side in human Caco-2 cells; type: ADME, cell-based; conditions: read-out: permeability
[5] = Distribution coefficient, logD of compound at pH 7.4; type: physicochemical; conditions: octanol/water
[6] = Tmax in mouse at 5 mg/kg, po; type: ADME, organism-based; conditions: in vivo
[7] = Efflux ratio of permeability in human Caco-2 cells; type: ADME, cell-based
[8] = Cmax in mouse at 5 mg/kg, po; type: ADME, organism-based; set-up: route oral, dose 5 mg/kg; conditions: in vivo
[9] = Intrinsic clearance in human liver microsomes; type: ADME, Microsome; conditions: read-out: CLH
[10] = Thermodynamic solubility of compound at pH 7.4; type: physicochemical; conditions: buffer, read-out: Therm_solubility
[11] = Permeability across basolateral to apical side in human Caco-2 cells; type: ADME, cell-based; conditions: read-out: permeability
[12] = Half life in mouse at 5 mg/kg, po; type: ADME, organism-based; conditions: in vivo
SK-OV-3 = test: Antiproliferative activity against human SK-OV-3 cells as reduction in cell growth measured after 72 hrs by Celltiter-Glo luminescent assay; type: functional
[13] = Intrinsic clearance in mouse liver microsomes; type: ADME, Microsome; conditions: read-out: CLH
[14] = target: Tyrosine-protein kinase receptor UFO (Homo sapiens) (UniProt P30530); test: Inhibition of Axl in human SK-OV-3 cells assessed as reduction in phosphorylated Axl level measured after 1 hr by Western blot analysis; type: cell-based; conditions: dose 1-10 µM
[15] = target: Tyrosine-protein kinase receptor UFO (Homo sapiens) (UniProt P30530); test: Inhibition of Axl in human SK-OV-3 cells assessed as reduction in phosphorylated ERK1/2 level at 1 to 10 uM measured after 1 hr by Western blot analysis; type: cell-based; conditions: dose 1-10 µM

Row | SMILES | IC50 [1] | IC50 [2] | other results
1 | Cn1cc(-c2n[nH]c3ccc(NC4CCNC4)cc23)cn1 (stereo not drawn) | 132 µM | – | –
2 | Cc1ccc(C)n1-c1ccsc1C(=O)O | 70 µM | – | –
3 | Cn1cc(-c2n[nH]c3ccc(Nc4ccccc4)cc23)cn1 | 0.58 µM | – | –
4 | Cn1cc(-c2nn(C)c3cc(N)ccc23)cn1 | > 384 µM | – | –
5 | CN1CC[C@@H](Nc2cc3c(-c4cnn(C)c4)n[nH]c3cc2Cl)C1 | 74 µM | 8.96 µM | –
6 | Clc1cc2[nH]nc(-c3cnn(-c4ccccc4)c3)c2cc1N[C@@H]1CCNC1 | 1.7 µM | 0.668 µM | –
7 | CN1CCC(CNc2ccc3[nH]nc(-c4cnn(C)c4)c3c2)CC1 | 1850 µM | – | –
8 | Cn1cc(-c2n[nH]c3cc(Cl)c(Br)cc23)cn1 | 0.85 µM | – | –
9 | Nc1cccc2[nH]nc(Br)c12 | 486 µM | – | –
10 | Cn1cc(-c2n[nH]c3cc(Cl)c(N[C@@H]4CCN(C5COC5)C4)cc23)cn1 | 320 µM | 24.7 µM | AUC(0-inf) [3]: 396 ng·h/mL; Papp A→B [4]: 13.7 ×10⁻⁶ cm/s; logD [5]: 2.31; Tmax [6]: 0.17 h; efflux ratio [7]: 2.31; Cmax [8]: 126 ng/mL; microsomal CLint [9]: 6.9 µL/min/mg; solubility thermodynamic [10]: 245 µg/mL (≈ 657 µM); Papp B→A [11]: 31.6 ×10⁻⁶ cm/s; half-life [12]: 2 h; microsomal CLint [13]: 15.2 µL/min/mg
11 | Clc1ccnc2[nH]ccc12 | 113 µM | – | –
12 | N#Cc1cccc(-n2cc(-c3n[nH]c4cc(Cl)c(N[C@@H]5CCNC5)cc34)cn2)c1 | 2.3 µM | 2.02 µM | GI50 (SK-OV-3): 0.496 µM

Second part, led by results:

Row | IC50 [1] | IC50 [2] | SMILES | other results
13 | > 770 µM | – | Nc1ccc2[nH]nc(Br)c2c1 | –
14 | 239 µM | > 50 µM | Cn1cc(-c2n[nH]c3ccc(N[C@H]4CCNC4)cc23)cn1 | –
15 | 28.8 µM | – | Cn1cc(-c2n[nH]c3cc(N)ccc23)cn1 | –
16 | 1 µM | 0.883 µM | COc1ccc(-n2cc(-c3n[nH]c4cc(Cl)c(N[C@H]5CNCC56CC6)cc34)cn2)cc1 | AUC(0-inf) [3]: 129 ng·h/mL; Papp A→B [4]: 4.05 ×10⁻⁶ cm/s; logD [5]: > 5; Tmax [6]: 0.25 h; efflux ratio [7]: 1.3; Cmax [8]: 53 ng/mL; microsomal CLint [9]: 83 µL/min/mg; solubility thermodynamic [10]: 5.55 µg/mL (≈ 12.8 µM); Papp B→A [11]: 5.24 ×10⁻⁶ cm/s; half-life [12]: 2.16 h; GI50 (SK-OV-3): 0.0285 µM; microsomal CLint [13]: 5.14 µL/min/mg
17 | 20.2 µM | – | Cc1cnc2[nH]ccc2c1Cl | –
18 | 432 µM | – | CNC1CCN(c2ccc3[nH]nc(-c4cnn(C)c4)c3c2)C1 (stereo not drawn) | –
19 | 19 µM | 3.13 µM | Cn1cc(-c2n[nH]c3cc(Cl)c(N[C@@H]4CCNC4)cc23)cn1 | Papp A→B [4]: 0.39 ×10⁻⁶ cm/s; inhibition [14]: Dose-Dependent Effect; logD [5]: 0.32; efflux ratio [7]: 22.6; microsomal CLint [9]: < 12 µL/min/mg; inhibition [15]: Active; solubility thermodynamic [10]: 297 µg/mL (≈ 938 µM); Papp B→A [11]: 8.71 ×10⁻⁶ cm/s; GI50 (SK-OV-3): 8.62 µM; microsomal CLint [13]: 9.38 µL/min/mg
20 | 305 µM | – | c1cncc(-c2csc(-c3cccnc3)n2)c1 | –
21 | 12.3 µM | – | Cn1cc(-c2n[nH]c3cc(-c4ccccc4)ccc23)cn1 | –
22 | 5 µM | 3.46 µM | FCCn1cc(-c2n[nH]c3cc(Cl)c(N[C@@H]4CCNC4)cc23)cn1 | –
23 | 330 µM | – | Brc1cnn2cccnc12 | –
24 | > 770 µM | – | Nc1ccc2c(Br)n[nH]c2c1 | –
25 | 178 µM | – | Brc1cccc2[nH]ncc12 | –
26 | 184 µM | – | FC(F)(F)c1cccc2[nH]ncc12 | –
